Reference: patent publication US10100083B2, “Leukemia stem cell targeting ligands and methods of use” (The Regents of the University of California, priority 2011, dated 2018)
Positions of bridges follow the written chain, without caps; N, C: chain ends. No end group written: not given here.

How the values were obtained:
[1] = Balb/c mice, follow-up for up to 10 days
in vivo = settings: Balb/c, mouse
[2] = system: PBMC, parental A549, K562 or other cell lines; experiment: Flow cytometry binding of biotinylated peptide to PBMC, parental and other cell lines (binding specificity)
Protocol: (§1) One peptide, CLL1-L1, with the sequence of […] (SEQ ID NO: 17) was synthesized for further analysis. To determine the binding specificity, cell lines purchased from the American Type Culture Collection (ATCC), such as PC3N (Prostate), HepG2 (Liver), Skov-3 (Ovarian), 5637 (Bladder), HCT-116 (Colon), RPMI8226 (Myeloma), A549 (Lung), K562 (Leukemia), A549 and K562 cells, both expressing CLL1, were incubated with CLL1-L1 conjugated to biotin and probed with streptavidin-phycoerythrin (PE) (excitation 480 nm, emission 578 nm) (FIG. 1D). A bladder cancer-specific ligand, PLZ4, conjugated to biotin was used as the negative control.
After panning, a total of 36 phage clones were sequenced. After alignment, two consensus sequences were identified: CXLR(S/T)AAVC (SEQ ID NO: 34) and CXLRSSGPC (SEQ ID NO: 24) (Table 1), in which “X” represents several amino acids that can be replaceable. Serine (S) and threonine (T) belong to the same hydrophilic class of amino acids with only one methyl group difference. Of these two major sequences, one common motif exists: “LR(S/T)”. To confirm that these ligands indeed bind to CLL1, A549 cells were transfected with a CCL1-RFP expression vector (FIG. 1B panel a) or RFP (FIG. 1B panel b, the control). Expression of CLL1-RFP or RFP could be visualized by the appearance of red fluorescence. For subsequent in depth characterization, we selected the peptide […] (SEQ ID NO: 17) instead of […] (SEQ ID NO: 23) because aspartic acid (D) is more hydrophilic than proline (P), which makes the peptide more water soluble and easier to synthesize and manipulate. A549 cells expressing CCL1-RFP or RFP alone were incubated with phage displaying the […] (SEQ ID NO: 17) peptide, and probed with anti-M13 monoclonal antibody-FITC conjugate. […] This peptide is named CLL1-L1 and was used for all subsequent experiments. Flow cytometry studies were also performed to determine cell binding. CLL1-L1 was conjugated to biotin through the polyethylene glycol (PEG) linker. Cells were incubated with biotinylated CLL1-L1 and probed with streptavidin-PE. […]

CLL1 [3] = experiment: Binding of phage displaying the peptide to A549 cells expressing CLL1-RFP (anti-M13 antibody-FITC); settings: anti-M13 monoclonal antibody-FITC
Protocol: (§2) FIGS. 1A-D illustrate identification of peptides that target CLL1. A. Panning strategy to identify CLL1-targeting peptides. Before each round of panning, the C7C phage peptide display library was subtracted with various cells to remove phage that could bind to those confounding cell types. B. Binding of phage to cells expressing CLL1. A549 cells were transfected with CLL1-RFP (a) or RFP (b, control), incubated with phage expressing the […] (SEQ ID NO: 17)peptide, and probed with anti-M13 phage antibody conjugated with FITC. Binding of phage to A549 cells expressing CLL1-RFP (c), but not to A549 cells expressing RFP (d) was observed. C. Binding of the […] (SEQ ID NO: 17)peptide to CLL1. Biotinylated […] (SEQ ID NO: 17) peptide was synthesized and used to probe PBMC, A549 transfected with vector alone, and A549 cells expressing CLL1. […] Upper panel: cells were probed with streptavidin (SA)-FITC. Lower panels: cells were probed with CLL1-targeting peptide and SA-FITC. D. Binding specificity of the […] (SEQ ID NO: 17)peptide. Cells of various origins were incubated with the biotinylated CLL1-targeting peptide or a bladder cancer-specific peptide, named PLZ4 as a negative control, and probed with SA-PE.
(§3) After panning, a total of 36 phage clones were sequenced. […] Expression of CLL1-RFP or RFP could be visualized by the appearance of red fluorescence. […]
Target sequence in this assay (Q5QGZ9 65-265 limits assumed): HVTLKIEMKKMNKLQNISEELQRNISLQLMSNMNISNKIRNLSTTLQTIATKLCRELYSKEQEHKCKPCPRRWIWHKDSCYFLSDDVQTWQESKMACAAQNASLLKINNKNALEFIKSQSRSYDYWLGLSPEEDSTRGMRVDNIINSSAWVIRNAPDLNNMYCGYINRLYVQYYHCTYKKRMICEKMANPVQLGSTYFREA

CLL1 [4] = experiment: Flow cytometry binding of biotinylated peptide to cells expressing CLL1
Protocol: as §1
Target sequence in this assay (Q5QGZ9 44-265 limits assumed): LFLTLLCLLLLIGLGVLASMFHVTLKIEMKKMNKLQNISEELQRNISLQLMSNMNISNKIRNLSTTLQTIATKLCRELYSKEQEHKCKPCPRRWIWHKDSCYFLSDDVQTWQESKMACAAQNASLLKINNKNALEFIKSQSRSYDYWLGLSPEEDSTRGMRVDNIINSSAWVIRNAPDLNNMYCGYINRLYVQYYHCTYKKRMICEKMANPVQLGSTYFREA
After panning, a total of 36 phage clones were sequenced. After alignment, two consensus sequences were identified: CXLR(S/T)AAVC (SEQ ID NO: 34) and CXLRSSGPC (SEQ ID NO: 24) (Table 1), in which “X” represents several amino acids that can be replaceable. Serine (S) and threonine (T) belong to the same hydrophilic class of amino acids with only one methyl group difference. Of these two major sequences, one common motif exists: “LR(S/T)”. To confirm that these ligands indeed bind to CLL1, A549 cells were transfected with a CCL1-RFP expression vector (FIG. 1B panel a) or RFP (FIG. 1B panel b, the control). Expression of CLL1-RFP or RFP could be visualized by the appearance of red fluorescence. For subsequent in depth characterization, we selected the peptide […] […]

[5] = system: A549 cells expressing RFP; experiment: Binding of phage displaying the peptide to control A549 cells expressing RFP
Protocol: as §2, §3

[6] = streptavidin-PE, flow cytometry (FIG. 1C)

Row | Molecule | Weight changes [1] | MTD (in vivo) | Binding to parental A549, K562 or other cell lines ([2]; SA-PE (FIG. 1D)) | Binding to A549 control cells [2, 6] | Binding to PBMC [2, 6] | Phage detected on cell surface (CLL1 [3]) | Binding to A549 and K562 cells that expressed recombinant CLL1 (CLL1 [4]; SA-PE (FIG. 1D)) | Binding to A549 cells expressing CLL1 (CLL1 [4]; streptavidin probe, flow cytometry (FIG. 1C)) | Phage detected on cell surface [5]
1 | COc1cccc2c1C(=O)c1c(O)c3c(c(O)c1C2=O)C[C@@](O)(C(C)=O)C[C@@H]3O[C@H]1C[C@H](N)[C@H](O)[C@H](C)O1 [free DNR, daunorubicin] | no significant weight changes | 10 mg/kg |  |  |  |  |  |  | 
2 | CDLRSAAVC (disulfide 1-9 (inferred)) [CLL1-L1, CLL1-targeting peptide from C7C phage display library, cyclized via the two cysteines] |  |  | not | No significant binding | No significant binding | detected on the surface | bound | significant binding | not on cells expressing RFP
